# According to ChEMBL document CHEMBL1201862, “PubChem BioAssay data set” (2004):
#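 96-well plates; 48 h exposure; 5 concentrations. Endpoints by linear interpolation between flanking doses. Not reached: highest tested concentration assigned. The concentration for 50% growth inhibition is given as GI50.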 Activity calls are given as the source filed them. Rule as the data show it: active = GI50 up to about 1.1 µM and inactive = higher. Residues, ends and D or L forms follow the SMILES beside them. *: point of attachment. Boc = CC(C)(C)OC(=O)*
# How the values were obtained:
# Experiment in all cases: NCI tumour cell line growth inhibition, 48 h
# [1] = test system: DU-145
# [2] = test system: HCT-15
# [3] = test system: Hs-578T
# [4] = test system: IGROV-1
# [5] = test system: K562
# [6] = test system: MDA-MB-231
# [7] = test system: MDA-MB-435
# [8] = test system: MOLT-4
# [9] = test system: NCI-H460
# [10] = test system: NCI/ADR-RES
# [11] = test system: OVCAR-3
# [12] = test system: RXF 393
# [13] = test system: SK-MEL-28
# [14] = test system: SNB-75
# [15] = test system: SR
# [16] = test system: TK-10
# [17] = test system: UACC-257
# [18] = test system: UACC-62
# [19] = test system: UO-31
# [20] = test system: MDA-N
SMILES,GI50 [1],GI50 [2],GI50 [3],GI50 [4],GI50 [5],GI50 [6],GI50 [7],GI50 [8],GI50 [9],GI50 [10],GI50 [11],GI50 [12],GI50 [13],GI50 [14],GI50 [15],GI50 [16],GI50 [17],GI50 [18],GI50 [19],GI50 [20]
CCOC(=O)c1nc2c(Cl)c3ncccc3cc2[nH]c1=O,> 100 µM (inactive),19 µM,31.7 µM (inactive),53.5 µM (inactive),26.1 µM (inactive),18.1 µM (inactive),32.1 µM (inactive),10.4 µM (inactive),16.8 µM (inactive),30.1 µM (inactive),26.2 µM (inactive),55 µM (inactive),59.3 µM (inactive),17.2 µM (inactive),8.73 µM (inactive),> 100 µM (inactive),46.7 µM (inactive),14.6 µM (inactive),55.5 µM (inactive),
CCOC(=O)c1oc2ccc(OC)c3c2c1CCC3,,> 100 µM,,> 100 µM (inactive),55 µM (inactive),,,26.1 µM (inactive),> 100 µM (inactive),,> 100 µM (inactive),70 µM (inactive),> 100 µM (inactive),> 100 µM (inactive),37.9 µM (inactive),83.8 µM (inactive),13.7 µM (inactive),> 100 µM (inactive),32.1 µM (inactive),
Cc1nc2c3c(ccc2nc1O)C(=O)c1ccccc1C3=O,,48 µM,,42.9 µM (inactive),> 100 µM (inactive),,,,37.2 µM (inactive),,> 100 µM (inactive),13.1 µM (inactive),> 100 µM (inactive),15.6 µM (inactive),> 100 µM (inactive),> 100 µM (inactive),> 100 µM (inactive),55.3 µM (inactive),6.15 µM (inactive),
CC/C(C)=C1\CCC(CN(C)C)C1=O (stereo not drawn),,15.8 µM,,20 µM (inactive),20 µM (inactive),,,26.7 µM (inactive),19.3 µM (inactive),,19.1 µM (inactive),20.7 µM (inactive),22.9 µM (inactive),16.3 µM (inactive),19.3 µM (inactive),17.3 µM (inactive),17.3 µM (inactive),33.3 µM (inactive),20.2 µM (inactive),
Cc1cc2c(cc1Cl)SC(N/N=C(\N)c1ccc(Cl)cc1)=NS2(=O)=O,> 100 µM (inactive),46.5 µM,48.5 µM (inactive),31 µM (inactive),44 µM (inactive),76.6 µM (inactive),61.8 µM (inactive),45.7 µM (inactive),52.7 µM (inactive),> 100 µM (inactive),34.7 µM (inactive),90.2 µM (inactive),54.7 µM (inactive),74.5 µM (inactive),,> 100 µM (inactive),62.7 µM (inactive),59.7 µM (inactive),42.7 µM (inactive),
COC(=O)C(CCS(=O)(=O)CC(=O)C(=O)Nc1cccc(C(C)=O)c1)C(=O)OC,,> 72.1 µM,,> 100 µM (inactive),> 61 µM (inactive),,,> 100 µM (inactive),> 53 µM (inactive),,> 100 µM (inactive),> 100 µM (inactive),> 91.4 µM (inactive),> 100 µM (inactive),20.9 µM (inactive),> 100 µM (inactive),> 100 µM (inactive),> 100 µM (inactive),> 100 µM (inactive),
N#C/C(=C\c1cccc(Cl)c1Cl)c1ccccc1,,> 57.4 µM,,33.7 µM (inactive),> 72.4 µM (inactive),,,> 100 µM (inactive),58.9 µM (inactive),,46.9 µM (inactive),31 µM (inactive),> 100 µM (inactive),19.1 µM (inactive),> 38.1 µM (inactive),57.3 µM (inactive),> 100 µM (inactive),58.3 µM (inactive),48.1 µM (inactive),
O=C1C(Cl)C(c2ccccc2)N1n1cnc2ccccc2c1=O (stereo not drawn),,> 100 µM,,> 100 µM (inactive),> 100 µM (inactive),,,> 100 µM (inactive),> 100 µM (inactive),,> 100 µM (inactive),76.9 µM (inactive),> 100 µM (inactive),19.4 µM (inactive),36.1 µM (inactive),> 100 µM (inactive),> 100 µM (inactive),> 100 µM (inactive),23.6 µM (inactive),
CCOC(=O)C1(C/C=C(/C)Cl)CCCC1=O (stereo not drawn),,26.7 µM,,> 100 µM (inactive),> 100 µM (inactive),,,> 100 µM (inactive),> 100 µM (inactive),,> 100 µM (inactive),> 100 µM (inactive),> 100 µM (inactive),> 100 µM (inactive),20.7 µM (inactive),> 100 µM (inactive),> 100 µM (inactive),> 100 µM (inactive),> 100 µM (inactive),
NS(=O)(=O)c1ccc2c(c1)OCCOCCOCCOCCO2,> 100 µM (inactive),> 100 µM,> 100 µM (inactive),> 100 µM (inactive),> 100 µM (inactive),> 100 µM (inactive),> 100 µM (inactive),> 100 µM (inactive),> 100 µM (inactive),,,,> 100 µM (inactive),> 100 µM (inactive),> 100 µM (inactive),> 100 µM (inactive),> 100 µM (inactive),> 100 µM (inactive),> 100 µM (inactive),
NC1=NN(c2ccccc2)C(=O)C1/C(=N\NC(=O)c1cc2ccccc2cc1O)C(=O)Nc1nc([N+](=O)[O-])cs1 (stereo not drawn),,24.3 µM,,19.1 µM (inactive),9.64 µM (inactive),,,3.6 µM (inactive),18.1 µM (inactive),,30.1 µM (inactive),2.73 µM (inactive),42.7 µM (inactive),18.5 µM (inactive),6.78 µM (inactive),38.5 µM (inactive),22.2 µM (inactive),19.6 µM (inactive),9.42 µM (inactive),
O=C1CCCC/C1=C(\Br)I,16 µM (inactive),3.4 µM,35.4 µM (inactive),9.38 µM (inactive),2.69 µM (inactive),17.6 µM (inactive),15.1 µM (inactive),2.11 µM (inactive),15.3 µM (inactive),19 µM (inactive),18 µM (inactive),15.6 µM (inactive),15.7 µM (inactive),16.9 µM (inactive),2.67 µM (inactive),13.9 µM (inactive),16.6 µM (inactive),15.5 µM (inactive),17.7 µM (inactive),
Cc1cn(C2CC(COCc3ccccc3)N(CCO[Si](C)(C)C(C)(C)C)O2)c(=O)[nH]c1=O (stereo not drawn),15.8 µM (inactive),,,,4.71 µM (inactive),18.7 µM (inactive),13 µM (inactive),5.93 µM (inactive),18.5 µM (inactive),14.3 µM (inactive),15 µM (inactive),15.5 µM (inactive),16.8 µM (inactive),,35.1 µM (inactive),14.3 µM (inactive),,11.9 µM (inactive),13.8 µM (inactive),14.6 µM (inactive)
CC1=CC(=O)N(n2c(-c3ccccc3)n[nH]c2=O)C1=O,> 100 µM (inactive),> 100 µM,> 100 µM (inactive),> 100 µM (inactive),> 100 µM (inactive),> 100 µM (inactive),> 100 µM (inactive),> 100 µM (inactive),> 100 µM (inactive),> 100 µM (inactive),> 100 µM (inactive),> 100 µM (inactive),> 100 µM (inactive),> 100 µM (inactive),,> 100 µM (inactive),> 100 µM (inactive),> 100 µM (inactive),> 100 µM (inactive),
CCOc1ccc(NC(=O)CC#N)cc1,,,,> 100 µM (inactive),> 100 µM (inactive),,,> 100 µM (inactive),> 100 µM (inactive),,> 100 µM (inactive),> 100 µM (inactive),> 100 µM (inactive),> 100 µM (inactive),> 100 µM (inactive),> 100 µM (inactive),> 100 µM (inactive),> 100 µM (inactive),> 100 µM (inactive),
CC(=O)OC1CC2C(C)(C)C(=O)C=C[C@]2(C)C2CCC3(C)C(c4ccoc4)[C@@H](O)[C@H]4O[C@]43[C@]12C (stereo partly drawn),,17.4 µM,,24 µM (inactive),16.4 µM (inactive),,,21.7 µM (inactive),19.3 µM (inactive),,17.7 µM (inactive),19.1 µM (inactive),23.7 µM (inactive),24 µM (inactive),16.1 µM (inactive),34.2 µM (inactive),21.4 µM (inactive),16.2 µM (inactive),17.8 µM (inactive),
COC1=CC(=O)[C@H]2[C@H](C)C(c3ccccc3)[C@@]2(C)C1=O (stereo partly drawn),,> 100 µM,,> 100 µM (inactive),> 100 µM (inactive),,,> 100 µM (inactive),> 100 µM (inactive),,> 100 µM (inactive),> 100 µM (inactive),> 100 µM (inactive),> 100 µM (inactive),> 100 µM (inactive),> 100 µM (inactive),,> 100 µM (inactive),> 100 µM (inactive),
CC(C)(C)OC(=O)NC(Cc1ccc(O)cc1)C(=O)NC(CCCCN)C(=O)O (stereo not drawn) (Boc-Tyr-Lys-OH; configuration not given here),27 µM (inactive),> 10 µM,,17.3 µM (inactive),35.8 µM (inactive),21.8 µM (inactive),20.7 µM (inactive),32.8 µM (inactive),25.2 µM (inactive),,28.4 µM (inactive),,23.8 µM (inactive),31.6 µM (inactive),28.6 µM (inactive),37.9 µM (inactive),27.5 µM (inactive),16.5 µM (inactive),19.7 µM (inactive),32.6 µM (inactive)
